A word on the IC50: it is the concentration that gives 50% inhibition.

Like-named read-outs stand apart in the source and are kept apart here. Ends that are not written are not given here.

For one assay, the system named is α-amylase. The settings on record: cited from earlier work. An excerpt:
(§1) Peptides are obtained from the decomposition of proteins. Standard methods for preparing peptides in the food industry include enzymatic hydrolysis and microbial hydrolysis.

Assay [1] has as its target T1, porcine pancreatic α-amylase (Sus scrofa, UniProt P00690).
T1 construct: purchased Sigma-Aldrich (St. Louis, MO, USA)
T1 sequence (P00690 16-511): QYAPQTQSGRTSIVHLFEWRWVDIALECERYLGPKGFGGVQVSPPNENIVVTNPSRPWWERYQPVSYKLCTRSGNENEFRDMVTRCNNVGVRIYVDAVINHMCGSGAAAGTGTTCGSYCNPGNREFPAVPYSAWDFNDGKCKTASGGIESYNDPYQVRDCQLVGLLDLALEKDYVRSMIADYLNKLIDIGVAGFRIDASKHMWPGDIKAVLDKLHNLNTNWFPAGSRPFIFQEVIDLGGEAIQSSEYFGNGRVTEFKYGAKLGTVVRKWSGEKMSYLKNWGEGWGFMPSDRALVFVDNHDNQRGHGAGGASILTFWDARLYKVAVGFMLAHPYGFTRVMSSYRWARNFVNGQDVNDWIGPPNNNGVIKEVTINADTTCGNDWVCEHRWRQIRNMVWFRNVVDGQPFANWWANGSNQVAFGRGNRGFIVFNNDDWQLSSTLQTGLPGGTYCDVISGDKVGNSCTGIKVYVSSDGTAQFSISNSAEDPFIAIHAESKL
The experiment in a line: α-Amylase inhibition assay in vitro (starch/DNS). The class given is biochemical. The following applies: synthetic peptides; enzyme 0.5 U/mL, starch 10 mg/mL, PBS pH 6.9–7.2; 20 min premix, 10 min at 37 °C; DNS, 540 nm; mean ± standard error of the mean, three parallels. From the text: p-Nitrophenyl-α-D-glucopyranoside (pNPG) and soy protein isolate were obtained from Mackiln (Shanghai, China). DL-dithiothreitol (DTT), iodoacetamide (IAA), formic acid (FA), acetonitrile (ACN), methanol, and porcine pancreatic amylase (PPA) (>10 units/mg) were acquired from Sigma-Aldrich (St. Louis, MO, USA). α-Glucosidase (from Saccharomyces cerevisiae, 26.5 units/mg) and trypsin (from porcine pancreas, 250 units/mg) were obtained from Yuanye Biotech (Shanghai, China). DNS solution was purchased from Rhawn (Shanghai, China). Oligopeptides were prepared with LifeTein (Beijing, China). High-performance liquid chromatography (HPLC)-grade acetonitrile, methanol, and formic acid were obtained from Merck (Darmstadt, Germany). The other chemicals were of analytical grade.
Methods refer to Admassu’s and make appropriate modifications. The starch solution (10 mg/mL), enzyme solution (0.5 U/mL), and soybean peptide solution at different concentrations (5, 10, 15, 20, 25 mg/mL) were prepared, the solvent was PBS (pH 6.9–7.2). […] The absorbance was measured at 540 nm, and the α-amylase inhibition ratio was calculated according to Formula (1):(1) α−Amylase Inhibition Ratio=1−A1−A2/A3−A4×100% where A1, A2, A3, and A4 are the absorbance values of the sample, sample blank, negative control, and blank, respectively.

In a further assay the target is α-glucosidase. The settings on record: cited from earlier work.
Description: as §1

Setting [2] is: peptide from Camellia seed cake, ref [15].
Where [3] appears, read: peptide from egg albumin, ref [19].

Turning to “GGSK [oligopeptide isolated from Porphyra spp]”, the “inhibition mode on α-amylase” value with α-amylase (peptides from Porphyra spp., ref [11]) is reported as “could still bind with the substrate after binding with α-amylase”.
In assay [1], SRNPIYSN returned an IC50 of 5.58 ± 0.13 mM.
Take “LLLLPSYSEF [identified from Camellia seed cake]”: at α-glucosidase (setting [2]), the half-inhibitory concentration (IC50) was 1110 µM and the “inhibition type on α-glucosidase” value is on record as “mixed inhibition”.
In turn, LDQTPRVF showed an IC50 in assay [1] of 3.08 ± 0.15 mM.
With “KLPGF [peptide segment identified in egg albumin]”, the IC50 at α-amylase (setting [3]) was 120 µM; at α-glucosidase (setting [3]), 59.5 µM.
Consider “GPPGPA [identified from the skin collagen of the Chinese giant salamander]”, for which, in the assay on α-glucosidase (peptide from skin collagen of Chinese giant salamander, ref [13]), the “inhibition type on α-glucosidase” value is recorded as “competitive inhibitory effects”.

The values above are taken from article PMC10743026, “Virtual Screening Technology for Two Novel Peptides in Soybean as Inhibitors of α-Amylase and α-Glucosidase” (Foods, 2023).
